# Patent US5444061A, “Anti-cancer compounds” (British Technology Group Limited, priority 1991, dated 1995)
# Experiments:
# [1] = tested on: human breast, ovarian and liver cancer; details: humans; cited from earlier work
# [2] = particularly in relation to the liver and kidneys; cited from earlier work
# [3] = tested on: L1210 cell line; test: Inhibition of growth of the leukaemia cell line L1210 in cell culture; format: cell-based; details: Mus musculus
# Text: The test may be similar to that described in UK Patent Specification No. 2065653B; and […]
# [4] = In vivo stability to cleavage of the central amide linkage of the dipeptide (i.p., mice); set-up: species or system mouse (male C57/DBA2 F1 hybrid); details: 100 mg/kg i.p., 1 hour; for Stability (cleavage of the central amide linkage of the dipeptide): based on dipeptide and cleavage product found in plasma and liver
# Description: In vivo tests in mice at a dosage of 100 mg/kg with various compounds according to the invention have shown a substantial lack of cleavage of the central amide linkage of the dipeptide as assessed by measurement of the amount of the cleavage product as a percentage of the total of parent compound and cleavage product present in the liver or plasma of a mouse sacrificed 1 hour after intraperitoneal administration of the dipeptide, i.e. cleavage was within the limit of experimental detection which is about 5%. Although a minor degree of cleavage of this amide linkage of the quinazoline is acceptable when it is used in practice, a level of cleavage on administration in vivo of less than 10% is preferred, with no more than about 5% being desirable, especially 2% or 1% or less.
# The four compounds were also tested for in vivo stability to cleavage of the central amide linkage of the dipeptide. This test comprised injecting the compound intraperitoneally into male C57/DBA2 (F1 hybrid) mice at a standard dosage rate of 100 mg/kg, sacrificing the animals after 1 hour, removing the plasma, liver and kidneys, homogenising these individually in nine times the volume of 0.1 M Tris HCl at pH 10, precipitating the protein and analysing the product in 0.05 M NaHCO3 by hplc on a Sperisorb C-6 column eluting with acetonitrile/sodium acetate of pH 5.0. UV measurements at 280 and 313 nm were used to detect the dipeptide and the breakdown product of cleavage at the central amide bond of the dipeptide, i.e. the L-glutamic acid derivative or D-glutamic acid derivative. Identification of the parent compound and any breakdown product was effected by Rt comparisons against standard samples of these compounds which have been subjected to the same treatment as the liver, kidney and plasma samples.
# The results obtained are shown in the Table, the identification of a compound which is "not cleaved" as compared with a compound which is "cleaved" being made on the basis of the amount of the dipeptide and its cleavage product found in the plasma and the liver.
# [5] = tested on: MCF-7 cell line; test: Inhibition of growth of the human breast cancer cell line MCF-7 in cell culture; format: cell-based; details: MCF7, MCF-7 cell culture, read-out: IC50 against the MCF-7 cell line
# Text: The test may be similar to that described by Lippman et al (Cancer Res., 1976, 36, 4595).
IC50 [3] [nM],Stability (cleavage of the central amide linkage of the dipeptide) [4],IC50 [5] [nM],location of the remaining part of the parent dipeptide which was detected [4],"cleavage product in the liver, as a percentage of the total drug administered ([4]; liver, typical experiment)","parent dipeptide present in the liver, as a percentage of the total drug administered ([4]; liver, typical experiment) [%]",Structure (SMILES),"activity against human breast, ovarian and liver cancer [1]",toxicity in humans [2],cleavage product accompanying the parent dipeptide in the plasma [4]
,,,,,,C#CCN(Cc1ccc2nc(N)[nH]c(=O)c2c1)c1ccc(C(=O)N[C@@H](CCC(=O)O)C(=O)O)cc1 [CB3717],"promising activity against human breast, ovarian and liver cancer","shows symptoms of toxicity in humans, particularly in relation to the liver and kidneys",
3400,cleaved,,,,,C#CCN(Cc1ccc2nc(C)[nH]c(=O)c2c1)c1ccc(C(=O)N[C@H](CCC(=O)N[C@@H](CCC(=O)O)C(=O)O)C(=O)O)cc1 [D-glu-L-glu],,,
180,not cleaved,300,found mostly in the plasma,no cleavage product,27±2,"C#CCN(Cc1ccc2nc(C)nc(O)c2c1)c1ccc(C(=O)N[C@@H](CCC(=O)N[C@H](CCC(=O)O)C(=O)O)C(=O)O)cc1 [Example 1, N-p-[N-(3,4-Dihydro-2-methyl-4-oxoquinazolin-6-ylmethyl)-N-(prop-2-ynyl)amino]benzoyl-L-γ-glutamyl-D-glutamic acid]",,,no cleavage product
1300,not cleaved,,,,,"C#CCN(Cc1ccc2nc(C)nc(O)c2c1)c1ccc(C(=O)N[C@H](CCC(=O)N[C@H](CCC(=O)O)C(=O)O)C(=O)O)cc1 [Example 10, N-p-[N-(3,4-dihydro-2-methyl-4-oxoquinazolin-6-ylmethyl)-N-(prop-2-ynyl)amino]benzoyl-D-γ-glutamyl-D-glutamic acid]",,,
100,cleaved,,found mostly in the plasma,,1.6±0.8,C#CCN(Cc1ccc2nc(C)nc(O)c2c1)c1ccc(C(=O)N[C@@H](CCC(=O)N[C@@H](CCC(=O)O)C(=O)O)C(=O)O)cc1 [L-glu-L-glu],,,a significant amount of the cleavage product
